Experimental data taken from article PMC11648681, “Development of machine learning models for the prediction of the skin sensitization potential of cosmetic compounds” (PeerJ, 2024).
Values joined by “and” are separate entries in the source; they are usually repeats but may differ in a detail not shown here. Equal values may be shown once. Read-outs that look alike come from different tables or passages of the source.

Tests used:
[1] = system: THP-1 cells; assay: CCK-8 cell viability of THP-1 cells after 48 h compound treatment in HaCaT/THP-1 co-culture; type: cell-based, human; conditions: 48 h
Method: (§1) The co-culture system was set up according to the following described method. […] THP-1 cells were collected, centrifuged, and re-suspended in fresh RPMI-1640 medium supplemented with 10% FBS at 2 × 10^6 cells/mL. Then cells are distributed into HaCaT-seeded 96 wells plate with 80 μL (1.6 × 10^5 cells/well).
(§2) The compounds listed in Table 1 were dissolved in DMSO to create stock solutions with a concentration of 500 mg/mL. Eleven concentrations were subsequently prepared using two-fold serial dilutions. These stock solutions were then further diluted 250-fold in RPMI-1640 + 10% FBS medium. Finally, 80 μL of the prepared solutions were added 1:1 to the treated 96-well plates and incubated for 48 h at 37 °C and 5% CO2.
(§3) After 48 h of treatment, the treated cells were collected 100 μL cells per well. The supernatant medium was added 10 μL of CCK-8 (Life-iLab, Shanghai, China) solution to each well and incubated the plate in the incubator for 2–4 h. THP-1 cell viability was determined using standard calculation methods.
(§4) The cytotoxicity of 15 test compounds listed in Table 1 was assessed using THP-1 cells across a concentration range of 1,000 to 3.9 μg/mL. Cell viability was assessed after 48 h of treatment using the CCK-8 assay.

[2] = as above; type: cell-based, human; conditions: human; for IC50 at 48 h: THP-1 cells, 48 h treatment, CCK-8, range 1,000 to 3.9 μg/mL, read-out: IC50 (cytotoxicity)
Method: as §1, §2, §3, §4

[3] = THP-1 cells in co-culture with HaCaT cells, 48 h, THP-1, individual replicate values
[4] = THP-1 cells in co-culture with HaCaT cells
[5] = 1.95312 μg/mL, THP-1, individual replicate values
[6] = 3.90625 μg/mL, THP-1, individual replicate values
[7] = 7.8125 μg/mL, THP-1, individual replicate values
[8] = 15.625 μg/mL, THP-1, individual replicate values
[9] = 31.25 μg/mL, THP-1, individual replicate values
[10] = 62.5 μg/mL, THP-1, individual replicate values
[11] = 125 μg/mL, THP-1, individual replicate values
[12] = 250 μg/mL, THP-1, individual replicate values
[13] = 500 μg/mL, THP-1, individual replicate values
[14] = 1000 μg/mL, THP-1, individual replicate values
[15] = THP-1 cells in co-culture with HaCaT cells, 31.25 μg/mL, 48 h, THP-1, individual replicate values, read-out: Cell viability
[16] = 0.976563 μg/mL, THP-1, individual replicate values

Row | Compound | Cell viability ([1]; human, 31.25 μg/mL) [%] | viability at 48 h, 31.25 μg/mL ([2]; Cell viability) [%] | viability at 48 h, 0.976563 μg/mL [2, 3] [%] | viability at 48 h, 1.95312 μg/mL [2, 3] [%] | viability at 48 h, 3.90625 μg/mL [2, 3] [%] | viability at 48 h, 15.625 μg/mL [2, 3] [%] | viability at 48 h, 62.5 μg/mL [2, 3] [%] | viability at 48 h, 125 μg/mL [2, 3] [%] | viability at 48 h, 250 μg/mL [2, 3] [%] | viability at 48 h, 500 μg/mL [2, 3] [%] | viability at 48 h, 1000 μg/mL [2, 3] [%] | Cell viability [1, 5] | Cell viability [1, 6] [%] | Cell viability [1, 7] [%] | Cell viability [1, 8] [%] | Cell viability [1, 11] [%] | Cell viability [1, 12] [%] | Cell viability [1, 13] [%] | Cell viability [1, 14] [%] | viability at 48 h, 7.8125 μg/mL [2, 3] [%] | also measured
1 | OCC(O)CO [glycerol, Glycerol] | 116.476 | 105 | 87.7 | 93.5 | 79.1 | 93.7 | 110 | 90.6 | 93.5 | 93.4 | 98.4 |  |  |  |  |  |  |  |  |  | IC50 at 48 h [2, 4]: > 1000 µg/mL
2 | O=CCc1ccccc1 [phenylacetaldehyde, Phenylacetaldehyde] |  |  | 84.7 | 85.6 | 84.7 | 74.2 | 15.8 | 17 | 19.5 | 21.5 | 18.6 | 84.3308% | 77.9774 | 74.6917 | 73.3083 | 17.3609 | 19.4737 | 22.2782 | 20.8421 | 80.6 | Cell viability [1, 9]: 14.7368%; Cell viability [1, 10]: 15.5263%; final concentration used (highest concentration that maintained at least 80% cell viability) ([1]; THP-1 cells, CCK-8, single (not double) concentration): 7.8 µg/mL; viability at 48 h, 31.25 μg/mL [2, 15]: 14.8%
3 | Oc1cccc(O)c1 [resorcinol, Resorcinol] | 84.1435 | 81.4 | 86.4 |  | 99.3 | 86.8 | 68 | 66.2 | 59.3 | 56.3 | 58.1 | 103.314% and 82.4843% | 80.4798 | 98.5964 | 93.1569 | 70.9013 | 60.5067 | 57.2511 | 56.1435 | 95.8 | Cell viability [1, 16]: 87.3677%; Cell viability [1, 10]: 79.0942%
4 | CC(C)CCCC(C)CCCC(C)CCCCC(C)CCCC(C)CCCC(C)C (stereo not drawn) [squalane, Squalane] |  |  |  |  | 85.4 | 78.7 | 87.1 | 98 | 83.7 | 82 | 91.2 | 117.419% | 88.2476 | 84.8 | 88.8667 | 94.8381 | 87.1048 | 84.4381 | 95.019 | 85 | Cell viability [1, 16]: 122.038%; Cell viability [1, 9]: 81.4095%; viability at 48 h, 31.25 μg/mL [2, 15]: 89.3%; IC50 at 48 h [2, 4]: > 1000 µg/mL
